Assay results: US6825217B2, “Carbinols for the treatment of neuropathic dysfunction” (Endo Pharmaceuticals, Inc., priority 2001, dated 2004)

What was measured:
Rat Tail-Flick = assay type: in vivo; parameters: key to activity in rat Tail Flick model: *: Inactive; Φ: Weakly active
Safety pharmacology, dog = assay type: in vivo
[1] = test system: sigma receptor sites in the brain; experiment: Activity at sigma receptor sites in the brain; assay type: binding
[2] = target: T1, kappa receptor sites in the brain (Homo sapiens, UniProt P41145); experiment: Activity at kappa receptor sites in the brain; assay type: binding
T1 construct: mu, kappa, delta or sigma receptor sites in the brain; from tissue

Rat tooth pulp = assay type: in vivo; conditions: unmarked entry of animal model table
[3] = Safety pharmacology, mouse; assay type: in vivo
[4] = Anti-inflammatory effects in vivo
[5] = target: T2, mu receptor sites in the brain (Homo sapiens, UniProt P35372); experiment: Activity at mu receptor sites in the brain; assay type: binding
T2 construct: mu, kappa, delta or sigma receptor sites in the brain; from tissue

Dog tooth pulp = assay type: in vivo; conditions: unmarked entry of animal model table
[6] = Fourteen-day Oral Dose Range Finding Study in Rats; assay type: in vivo, rat
[7] = Safety pharmacology, monkey; assay type: in vivo
[8] = target: T3, rat synaptosomal 5-HT Reuptake (Rattus norvegicus, UniProt P31652); experiment: Serotonin reuptake assay (rat synaptosomal 5-HT uptake); assay type: biochemical
T3 construct: rat synaptosomal 5-HT and NE Reuptake; from tissue; host or cells: rat synaptosomes (rat brain preparations)

[9] = target: T4, rat synaptosomal NE Reuptake (Rattus norvegicus, UniProt Q63380); experiment: Norepinephrine reuptake assay (rat synaptosomal NE uptake); assay type: biochemical
T4 construct: rat synaptosomal 5-HT and NE Reuptake; from tissue; host or cells: rat synaptosomes (rat brain preparations)
T4 sequence (Q63380 1-617): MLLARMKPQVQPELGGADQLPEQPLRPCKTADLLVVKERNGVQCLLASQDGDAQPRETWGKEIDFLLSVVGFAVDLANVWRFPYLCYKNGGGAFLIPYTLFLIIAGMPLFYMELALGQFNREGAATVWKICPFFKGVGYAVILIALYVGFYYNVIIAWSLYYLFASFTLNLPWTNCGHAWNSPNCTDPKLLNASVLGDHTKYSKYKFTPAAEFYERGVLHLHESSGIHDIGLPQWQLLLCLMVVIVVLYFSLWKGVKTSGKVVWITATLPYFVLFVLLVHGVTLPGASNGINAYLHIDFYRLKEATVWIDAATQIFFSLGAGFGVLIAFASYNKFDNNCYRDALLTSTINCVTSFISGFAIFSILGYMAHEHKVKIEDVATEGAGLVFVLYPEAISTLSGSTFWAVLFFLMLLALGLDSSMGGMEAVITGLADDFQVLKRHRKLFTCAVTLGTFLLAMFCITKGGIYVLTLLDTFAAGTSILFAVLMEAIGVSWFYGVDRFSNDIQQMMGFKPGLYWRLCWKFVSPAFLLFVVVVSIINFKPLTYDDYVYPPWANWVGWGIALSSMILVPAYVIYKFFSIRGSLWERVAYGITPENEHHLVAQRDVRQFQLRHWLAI

T3 sequence (P31652 whole entry): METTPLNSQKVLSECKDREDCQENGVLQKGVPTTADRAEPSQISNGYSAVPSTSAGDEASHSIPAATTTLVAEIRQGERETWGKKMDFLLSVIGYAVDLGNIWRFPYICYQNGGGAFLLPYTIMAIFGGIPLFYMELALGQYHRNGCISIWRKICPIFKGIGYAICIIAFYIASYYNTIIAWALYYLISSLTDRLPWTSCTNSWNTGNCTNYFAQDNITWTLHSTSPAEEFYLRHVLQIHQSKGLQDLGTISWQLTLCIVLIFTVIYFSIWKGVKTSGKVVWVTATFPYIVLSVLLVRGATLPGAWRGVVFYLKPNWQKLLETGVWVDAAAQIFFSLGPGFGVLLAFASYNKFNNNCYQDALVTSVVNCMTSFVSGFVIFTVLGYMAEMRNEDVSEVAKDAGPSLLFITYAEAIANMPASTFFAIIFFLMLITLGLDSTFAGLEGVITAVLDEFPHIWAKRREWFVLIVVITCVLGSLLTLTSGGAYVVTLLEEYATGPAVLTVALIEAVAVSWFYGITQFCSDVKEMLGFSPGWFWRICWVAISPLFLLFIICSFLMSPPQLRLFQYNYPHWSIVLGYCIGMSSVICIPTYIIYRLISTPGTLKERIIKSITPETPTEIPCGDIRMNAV
T1 sequence (P41145 whole entry): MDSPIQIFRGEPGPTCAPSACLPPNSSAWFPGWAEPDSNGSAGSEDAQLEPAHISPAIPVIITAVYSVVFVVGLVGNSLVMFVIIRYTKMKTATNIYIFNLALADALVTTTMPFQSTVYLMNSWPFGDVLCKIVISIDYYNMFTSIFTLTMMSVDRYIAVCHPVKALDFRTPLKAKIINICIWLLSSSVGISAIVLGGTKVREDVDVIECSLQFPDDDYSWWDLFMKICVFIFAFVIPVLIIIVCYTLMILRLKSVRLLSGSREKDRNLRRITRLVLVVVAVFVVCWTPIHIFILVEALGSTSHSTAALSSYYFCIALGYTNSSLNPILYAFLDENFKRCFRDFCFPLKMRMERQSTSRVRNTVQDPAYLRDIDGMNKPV
T2 sequence (P35372 whole entry): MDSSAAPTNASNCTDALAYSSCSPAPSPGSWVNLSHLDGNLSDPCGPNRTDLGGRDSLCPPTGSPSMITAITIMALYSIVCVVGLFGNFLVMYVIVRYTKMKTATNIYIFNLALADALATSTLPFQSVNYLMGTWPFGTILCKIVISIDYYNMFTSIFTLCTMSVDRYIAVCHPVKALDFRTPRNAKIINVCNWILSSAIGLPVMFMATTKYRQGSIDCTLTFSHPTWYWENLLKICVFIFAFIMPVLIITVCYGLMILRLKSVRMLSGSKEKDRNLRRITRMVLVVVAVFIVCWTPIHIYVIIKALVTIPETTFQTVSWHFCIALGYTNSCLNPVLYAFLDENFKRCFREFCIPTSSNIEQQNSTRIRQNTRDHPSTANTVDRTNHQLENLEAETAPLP

CN1CCC(c2ccsc2)(C(C)(C)O)CC1 [Compound A, 4-(3-thienyl)-α,α,1-trimethyl-4-piperidinemethanol]
Rat Tail-Flick (Rat Tail-Flick): Inactive | activity in rat Tail Flick model (Rat Tail-Flick): Tail Flick* | MTD (Safety pharmacology, dog; in vivo): 20 mg/kg | hypotension/decreased cardiac contractility, anemia, multiple of effective dose (Safety pharmacology, dog; iv-pentobarb): 10 X | emesis/anorexia BW loss, multiple of effective dose (Safety pharmacology, dog; po): 1-10 X | respiratory acidosis, multiple of effective dose (Safety pharmacology, dog; po): 10 X | activity at sigma receptor sites [1]: does not show significant activity | activity at kappa receptor sites [2]: does not show significant activity | activity in rat Tooth pulp model (Rat tooth pulp): showed activity | LD ([3]; po): LD = 900 mg/kg-po | cross-tolerance to morphine, multiple of effective dose ([3]; po/iv): 1-50 X | inhibition of GI motility, multiple of effective dose ([3]; po/iv): 1 X | mydriasis, multiple of effective dose ([3]; po/iv): 1 X | anti-inflammatory effects in vivo [4]: does not inhibit prostaglandin synthesase activity or show anti-inflammatory effects in vivo | activity at mu receptor sites [5]: does not show significant activity | activity in dog Tooth pulp model (Dog tooth pulp): showed activity | NOEL (exophthalamos) [6]: NOEL < 30 mg/kg | NOAEL at 14 day ([6]; rat, in vivo): 100 mg/kg | MTD ([7]; in vivo, other: iv/sc): 16 to 32 mg/kg | LD ([7]; iv/sc): LD = 1.6-32 mg/kg | physical dep ([7]; iv/sc): non-opioid | respiratory depression, multiple of effective dose (mg/kg) ([7]; iv/sc): 16/32 | Chronic dosing: effect at 0.4 ([7]; iv/sc, 0.4, at 7 days): 0.4 = retching | Chronic dosing: effect at 1.6 ([7]; iv/sc, 1.6, at 11 days): 1.6 = death | Chronic dosing: effect at 1.6 ([7]; iv/sc, 1.6, at 20 days): 1.6 = death | IC50 [8]: 120 nM | uptake of serotonin ([8]; rat brain preparations): inhibits uptake | uptake of norepinephrine ([9]; rat brain preparations): inhibits uptake | IC50 ([9]; rat synaptosomal, read-out: NE uptake inhibition IC50): 223 nM
